Row | SMILES | melting point [°C]
1 | CCCCCCCCCCNc1nc(NCC(O)C2CC(C)(C)NC(C)(C)C2)nc(NCC(O)C2CC(C)(C)NC(C)(C)C2)n1 (configuration not stated) | 106 to 107
2 | CNC(=S)C1=CC(C)(CF)Oc2ccc([N+](=O)[O-])cc21 (configuration not stated) | 141 to 144
3 | CC1CCc2ncc([N+](=O)[O-])cc2C1 (configuration not stated) | 50 to 52
4 | Cc1cc2c3c(cc(Br)cc3c1Br)C(=O)N(O)C2=O | 320 to 323
5 | CCOC(=O)C(=O)c1c[nH]c2cc(OC)ccc12 | 207 to 208
6 | OCC1OC(n2cnc3c(Nc4ccccc4)cc(Cl)nc32)C(O)C1O (configuration not stated) | 157 to 160
7 | Cc1c(Cl)cc(C(=O)O)c(Cl)c1[N+](=O)[O-] | 210 to 218
8 | O=C(O)Cn1c(=O)c(=O)[nH]c2cc([N+](=O)[O-])c(Cl)cc21 | > 280
9 | Nc1ccc2c(c1)NC(=O)c1cscc1N2 | 212 to 215
10 | O=C1Nc2cc(Cl)ccc2Oc2cscc21 | 263 to 265
11 | CCCCCCc1ccc(CCCCC(NC(C)=O)(C(=O)OCC)C(=O)OCC)cc1 | 57 to 58
12 | CCC(CC)c1ccc(C(F)(F)F)c2[nH]c(=O)n(C)c12 | 205 to 206
13 | C=C1CCC2C3CCC4=CC(=O)C=CC4(C)C3CCC12C (configuration not stated) | 155 to 157
14 | N#Cc1cc[nH]c1-c1cc2ccccc2o1 | 157 to 160
15 | CCc1cc(O)cc(=O)o1 | 106 to 108
16 | CCCN(CCC)CCc1cccc2[nH]c(=O)[nH]c12 | 189 to 192
17 | CCn1nc(C)c2c(O)c(C(=O)O)cnc21 | 212 to 213
18 | CC(=O)C(C(C)=O)C(C(C)=O)C(C)=O | 193 to 194
19 | CC1(C)c2cc(C#N)ccc2OC1N=C=S (configuration not stated) | 52
20 | CCN(C)c1nc2sc3c(NCc4ccccn4)ncnc3c2c2c1CCC(C)(C)C2 | 152
21 | CC(C)(C)OC(=O)Nc1ccc2c(c1)OCC(=O)N2 | 200 to 203

Row | SMILES | melting point [°C]
22 | COc1ccc(N2CCN(n3ccnc3SC)CC2)cc1 | 140
23 | CCn1cc(C(=O)O)c(=O)c2cnc(N3CCN(Cc4ccc(N)cc4)CC3)nc21 | 198 to 201
24 | CC(=O)NCCCc1ccc(CCl)cc1 | 89 to 90
25 | COC(=O)CCCCCCNC(=O)C(CS)Cc1ccccc1 (configuration not stated) | 68 to 70
26 | COc1ccc(C2=NN(CCCCBr)C(=O)[C@H]3CC=CC[C@@H]23)cc1Cl (relative stereo) | 109 to 111
27 | CC(CC(=O)N1CCCC1)Sc1cc(C(C)(C)C)c(O)c(C(C)(C)C)c1 (configuration not stated) | 95 to 99
28 | COc1cc(C)c2nc3cccc(OC)c3nc2c1 | 201 to 202
29 | Cn1cnc2ncnn2c1=S | 238 to 240
30 | CC(C)c1nc(CN=[N+]=[N-])n(Cc2cccnc2)c1Sc1cc(Cl)cc(Cl)c1 | 99 to 103
31 | Cc1ccc(S(=O)(=O)Oc2cc(C=O)cc(OS(=O)(=O)c3ccc(C)cc3)c2OS(=O)(=O)c2ccc(C)cc2)cc1 | 159
32 | COc1ccc(CCc2oc3ccc(Br)cc3c2CCl)cc1 | 70 to 75
33 | CN1C(=O)OC[C@H]1Cc1ccccc1 | 75 to 77
34 | O=C1CCC2=C1C(c1cccc(Br)c1)C1=C(CCS1)N2 (configuration not stated) | 246
35 | CC(C)(C)OC(=O)N(CCCCC(=O)c1cc2c3c(c1)CCN3C(=O)CC2)CCc1ccccc1O | 154 to 155
36 | CN1C(=O)[C@H](NC(=O)CCc2ccc(Cl)cc2Cl)N=C(c2ccccc2)c2cc(NS(C)(=O)=O)ccc21 | 130 to 148
37 | CCCc1nn(C)c2c(=O)[nH]c(-c3cc4cccc(OCC)c4o3)nc12 | 227 to 229
38 | CC(=O)NCCCCn1cnc2c(N)nc(C)c(C)c21 | 217 to 219
39 | COc1ccc(-c2cc(Cl)c3cc(O)c(Br)cc3c2)cc1 | 138 to 139
40 | CCc1nn(C2CCCC2)c2c1CCn1c-2nnc1C(C)(C)C | 150 to 151
41 | CC(=O)Nc1cc2c(cc1C#N)[C@@H](N1CCCC1)[C@H](O)C(C)(C)O2 (relative stereo) | 175 to 176
42 | Cc1cc2c(c(Sc3ccc(Cl)cc3)n1)C(=O)N(CC1Cc3c(sc(N)c3C(=O)OC(C)(C)C)CO1)C2=O (configuration not stated) | 118 to 119

Second part, the compound after the results:

Row | melting point [°C] | SMILES
43 | 171 to 172 | CCOCc1nc2c(N)nc3ccccc3c2n1CCCc1cc(-c2ccccc2)no1
44 | 219 to 221 | CC(C)(C)CC(C)(C)c1cc(-n2nc3ccc(C(=O)O)cc3n2)c(O)c(C(C)(C)c2ccccc2)c1
45 | 156 to 157 | O=C(O)CCCCCSc1ccc(-c2ccc(Cl)cc2)cc1
46 | 181 to 182 | CCC(=O)Nc1cccc(O)c1
47 | 148 to 150 | Cc1cccc(C(=O)O)c1NC(=S)Cc1ccccc1
48 | 112 to 114 | O=C1C(=O)c2ccccc2C2=C1SCC1(CCN(CCCc3ccccc3)CC1)O2
49 | 112 to 113 | Cc1ccc(C2=NN(c3ccccc3)C(=O)C2)cc1
50 | 90.4 to 91.4 | COC(=O)c1cc(-c2ccc(SC)cc2)nn(CC(C)C)c1=O
51 | 148 to 151 | CCOC(=O)c1cnc2ccc(OCC)nc2c1Nc1ccc(Oc2ccccn2)cc1
52 | 100 to 102 | CONC(=O)c1ccccc1OCc1ccc(Cl)cc1Cl
53 | 58 | O=C(C[C@@H](C(=O)OCc1ccccc1)n1c2ccccc2c2ccccc21)OCCOC(=O)c1ccc(NC(=O)OCc2ccccc2)cc1
54 | 71.5 to 72 | CC(C)OC(=O)C=CC(=O)c1ccc(Oc2ccccc2)cc1
55 | 110 to 112 | O=C(NC(=O)N1CCC(Cc2ccccc2)CC1)c1ccc2[nH]ccc2c1
56 | 130 | CCOC(=O)C1(S(=O)(=O)c2ccc(OC)cc2)CCN(Cc2ccc(-c3cccs3)cc2)CC1
57 | 146 to 148 | CN(C)CCCNC(=O)c1c2ccc(Cl)cc2c(-c2ccccc2)n1C
58 | 106 to 107 | CC(C)C(=O)N(CCCCCC(=O)O)C(c1ccccc1)c1ccccc1
59 | 161 | CC(C)c1cccc(C(C)C)c1NC(=O)CNC(c1ccccc1)c1ccc(F)cc1 (configuration not stated)
60 | 216 to 218 | COc1cc2occ(-c3ccccc3)c(=O)c2c(Cl)c1Cl
61 | 210 to 214 | Cc1[nH]c(=S)[nH]c(=O)c1CCc1ccccc1
62 | > 200 | N#Cc1c(N2CCc3ccccc3CC2)nc(NCCOc2ccccc2)[nH]c1=O
63 | 206 to 207 | COc1cccc(OC)c1-c1ccc(C[C@H](NC(=O)c2c(Cl)cc(F)cc2Cl)C(=O)O)cc1
64 | > 220 | CSc1nn2c(O)cc(CN(C)C)nc2c1S(=O)(=O)c1ccccc1
65 | 204 to 205 | CCN(CC)c1ccc2nc3c4ccc(Br)cc4c(=Nc4ccccn4)cc-3oc2c1
66 | 138 to 139 | CC(Cc1ccc(Oc2cc(N3CCN(Cc4ccccn4)CC3)nc(N)n2)cc1)(Oc1ccccc1)C(=O)O (configuration not stated)
67 | 119 to 120 | CC(C)(C)C(F)(F)c1ccc(C[C@@H](NC(=O)c2cccc3c2C=CCCC3)[C@@H](O)c2cccc(Cl)c2)cc1 (racemic)
68 | 149 to 150 | Cc1oc(-c2ccccc2)nc1CCC(N)=O
69 | 125 to 126 | O[C@@H]1c2ccccc2C=C[C@H]1NCc1ccccc1 (relative stereo)
70 | 166 | COc1ccc(CN2C(=O)C(C)(c3ccc(F)cc3Cl)c3cc(Cl)ccc32)c(OC)c1 (configuration not stated)
71 | 52 to 53 | CCOC(=O)N(CCOc1ccc(Oc2ccc(F)cc2)cc1)C(=O)OCC
72 | 262 to 264 | O=C(O)c1ccc2c(c1)C(=O)N(c1ccccc1C(=O)O)C2=O

Source: a melting point compilation (Tetko et al.; mined from patent text by program, amines drawn as free bases though some values may be those of a salt)
